Test results: patent US20240092728A1, “HYDROXY-SUBSTITUTED SPHINGOLIPIDS” (Evonik Operations GmbH, priority 2021, published 2024)

Legend:
[1] = system: sun-stressed skin; test: In-vivo study: skin roughness on inside of forearm (Visioscan VC 98); design: species or system human; unit not given here; conditions: formulation applied twice daily to forearm; for Decrease in roughness W2 − W0: after 2 weeks; for Decrease in roughness W4 − W0: after 4 weeks; for Decrease in roughness W8 − W0: after 8 weeks
Description: (§1) For the in-vivo study, 24 test subjects (male and female) with sun-stressed skin were recruited. In order to ensure sun-stressed skin, this study was carried out in the period from September to November. […] The test subjects received either two different test formulations, which they applied to one forearm each, or one test formulation. which was applied to one forearm with the second forearm remaining untreated (control). The test formulations were a vehicle and a formulation containing 0.1% of hydroxybutyroyl phytosphingosine (hydroxybutyroyl PS). The various test combinations were assigned to the test subjects randomly. The test subjects applied the test formulations for a period of 8 weeks twice daily to the inside and outside of in each case one forearm. The following measurements on the forearms were carried out before the start of application and after two, four and eight weeks: • 1. Colour measurement: A colorimeter probe (Skin-Colorimeter CL 400, Courage & Khazaka, Cologne) was used to measure the parameters L* and ITA° on the outside of the forearm. L* describes the black/white value of the skin, ITA° describes the skin tone. When skin becomes lighter, both values show an increase. • 2. Skin roughness: This parameter was determined by means of a special camera on the inside of the forearm (Visioscan VC 98, Courage & Khazaka). This camera records a digital black-and-white image of the skin. The grayscale distribution of the image can be used to determine the skin roughness. • 3. Density of the dermis: The density of the dermis was determined by ultrasound on the outside of the forearm (SkinLab Combo, Cortex Technologies, Denmark). For this, a special probe transmits an ultrasound signal to the skin and records the reflection. This reflection can be used to determine a value for the skin density. A reduced skin density is shown in particular by areas of skin that have been very strongly exposed to sunlight.

[2] = system: normal human epidermal keratinocytes (NHEK); test: ROS production after UV irradiation (2,7-DCDHF-DA fluorescence); format: cell-based
Description: (§2) The extent to which the substances of the invention are able to exert a protective effect on normal human epidermal keratinocytes (NHEK) exposed to UV irradiation was examined.
(§3) For this, corresponding investigations were carried out of biomarkers for reactive oxygen species (ROS), quantified with 2,7-dichlorodihydrofluorescein diacetate, and DNA damage and repair, quantified by the Comet assay.
The intracellular formation of reactive […] species (ROS) is inter alia a factor that leads to damage of cellular DNA by UV radiation.
96-well plates were seeded with keratinocytes, which were cultured for 24 hours in culture medium and then for a further 24 hours in assay medium. The medium was then replaced by a test medium containing the test compounds or the references (100 μM vitamin E and 10 μM EGCG) or in which they were absent (irradiated control) and the cells were preincubated for 24 hours. After preincubation, the medium was removed and replaced by assay medium, the fluorescent probe (2,7-dichlorodihydrofluorescein diacetate (10 μM 2,7-DCDHF-DA in assay medium) was added and the cells were incubated at 37° C. for 30 minutes. The cells were then washed with PBS solution and irradiated with 100 mJ/cm^2 UVB+UVA (+0.7 J/cm^2) without compounds or references. The lamp used was a SOL500 solar simulator with H2 filter (Dr. Honle, AG). After irradiation, the cells were incubated for 30 minutes. An unirradiated control and the conditions without sample (background noise) were carried out in parallel.
All experimental conditions were carried out in triplicate.
The emitted intensity of fluorescence (ex=485 nm, em=538 nm) was measured using an EnVision® (Perkin Elmer) microplate reader.
The intensity of fluorescence of the metabolized sample (DCF) was proportional to the formation of ROS. ROS production was therefore expressed as the relative intensity of fluorescence.

[3] = system: sun-stressed skin; test: In-vivo study: skin colour measurement (L*, ITA°) on outside of forearm; design: species or system human; conditions: formulation applied twice daily to forearm; for ΔITA° W2 − W0 / ΔL* W2 − W0: after 2 weeks; for ΔITA° W4 − W0 / ΔL* W4 − W0: after 4 weeks; for ΔITA° W8 − W0 / ΔL* W8 − W0: after 8 weeks
Description: as §1

[4] = system: sun-stressed skin; test: In-vivo study: density of the dermis by ultrasound on outside of forearm; design: species or system human; unit not given here; conditions: formulation applied twice daily to forearm; for Δ skin density W2 − W0: after 2 weeks; for Δ skin density W4 − W0: after 4 weeks; for Δ skin density W8 − W0: after 8 weeks
Description: as §1

[5] = system: normal human epidermal keratinocytes (NHEK); test: DNA damage and repair after UV irradiation (Comet assay); format: cell-based
Description: as §2, §3
6-well plates were seeded with the keratinocytes, which were incubated for 48 hours in culture medium, with the medium replenished after 24 hours. The medium was then replaced by culture medium containing the test compounds or the references (0.3 mM control) or in which they were absent (control) and the cells were incubated for 24 hours. After the preincubation, the culture medium was removed and assay medium again added and the cells were irradiated with 250 mJ/cm^2 UVB+UVA (+1.6 J/cm^2) in the absence of the compounds. The lamp used was a SOL500 solar simulator (Dr. Hönle, AG) fitted with an H2 filter. An unirradiated control condition was carried out in parallel. All experimental conditions were carried out in duplicate.
At the end of the irradiation, the culture supernatants were discarded and the cells were washed with phosphate-buffered saline (PBS) prior to analysis.
The cells were trypsinized and counted and the supernatant was removed after centrifugation. The cells were then washed with PBS solution and suspended in the same PBS solution so as to achieve a cell concentration of 1×10^5 cells/ml. The cell suspension was then mixed with molten (37° C.) 1% agarose gel of low melting point and pipetted onto the Comet microscope slides (duplicate analysis for each condition). For cell lysis, the microscope slides were immersed in a freshly prepared alkaline solution (200 mM NaOH containing 1 mM EDTA, pH>13) on an electrophoresis support. The gel electrophoresis was carried out at 21 volts for 30 minutes. The Comet microscope slides were washed twice with water, each time for 5 minutes, then washed with 70% ethanol for 5 minutes and air-dried at 37° C. for 15 minutes.
After the electrophoresis, each dried sample was stained with a DNA intercalating fluorescent dye (SYBR Green solution). The cells were then observed in epifluorescence using an automated IN Cell Analyzer™ 2200 microscope image analyser (GE Healthcare) (X10 objective lens). On excitation (ex 494 nm, em 524 nm), the DNA-bound SYBR® Green emits green light. […] If DNA damage has occurred, the alkali treatment causes the DNA to […], releasing fragments that migrate outside the cell when exposed to an electric field. The negatively charged DNA migrates to the anode, the extrusion length being proportional to the relaxation of the supercoiled structure, which is an indicator of damage. When alkaline electrophoresis conditions are employed, the distribution of the DNA between the tail and comet head can be used to determine the extent of the DNA damage. The images of the cells were analysed with OpenComet in conjunction with ImageJ software. In each replicate of the analysis, a minimum value of 500 events was analysed.

[6] = 10 μM, 24 h preincubation, 100 mJ/cm^2 UVB+UVA
[7] = 10 μM, 24 h preincubation, 250 mJ/cm^2 UVB+UVA
[8] = 5 μM, 24 h preincubation, 100 mJ/cm^2 UVB+UVA

| Molecule | Decrease in roughness W2 − W0 [1] | Decrease in roughness W4 − W0 [1] | Decrease in roughness W8 − W0 [1] | protective effect against the formation of ROS [2, 6] | ΔITA° W2 − W0 [3] | ΔL* W2 − W0 [3] | ΔITA° W4 − W0 [3] | ΔL* W4 − W0 [3] | ΔITA° W8 − W0 [3] | ΔL* W8 − W0 [3] | Δ skin density W2 − W0 [4] | Δ skin density W4 − W0 [4] | Δ skin density W8 − W0 [4] | protective effect against DNA damage after UV irradiation [5, 7] | protective effect against the formation of ROS [2, 8] | protective effect against DNA damage after UV irradiation ([5]; 2 μM, 24 h preincubation, 250 mJ/cm^2 UVB+UVA) | protective effect against DNA damage after UV irradiation ([5]; reference 0.3 mM, 250 mJ/cm^2 UVB+UVA) | protective effect against DNA damage after UV irradiation ([5]; 5 μM, 24 h preincubation, 250 mJ/cm^2 UVB+UVA) | protective effect against the formation of ROS ([2]; concentration not stated (FIG. 1; with increasing concentration)) | protective effect against DNA damage after UV irradiation ([5]; concentration not stated (FIG. 2)) |
| --- | --- | --- | --- | --- | --- | --- | --- | --- | --- | --- | --- | --- | --- | --- | --- | --- | --- | --- | --- | --- |
| 3-Hydroxypropioyl phytosphingosine [Ex 1c] | −1.20 | −5.55 | −6.21 | 5% | 2.41 | 0.58 | 4.89 | 1.92 | 8.67 | 2.55 | .82 | 0.98 | 0.82 | 13% |  |  |  |  |  |  |
| CCCCCCCCCCCCCCC(O)C(O)C(CO)NC(=O)C(O)C(C)(C)CO (centres unmarked) [Example 5, 2-hydroxy-3,3-dimethyl-hydroxybutyroyl phytosphingosine] |  |  |  |  |  |  |  |  |  |  |  |  |  |  | 38% | 39% |  |  |  |  |
| O=S(=O)(O)c1cc(O)c(O)c(S(=O)(=O)O)c1 [tiron] |  |  |  |  |  |  |  |  |  |  |  |  |  |  |  |  | approximately 60% |  |  |  |
| CCCCCCCCCCCCCCC[C@@H](O)[C@H](CO)NC(=O)C(O)C(C)(C)CO (some centres unmarked) [Ex 5b, 2-hydroxy-3,3-dimethyl-hydroxybutyroyl sphinganine] | −3.2 | −12.34 | −13.63 |  | 3.54 | 0.92 | 6.21 | 2.02 | 10.52 | 3.28 | 2.23 | 3.25 | 3.64 |  | 22% |  |  | 24% |  |  |
| CCCCCCCCCCCCCC[C@@H](O)[C@@H](O)[C@@H](N)CO [phytosphingosine] |  |  |  |  |  |  |  |  |  |  |  |  |  |  |  |  |  |  | No significant protective effect | cannot be demonstrated |
| Ceramide 3 [Cer 3] | 0.05 | −5.12 | −4.66 | 4% | 2.34 | 0.60 | 5.21 | 1.82 | 8.79 | 2.61 | 1.20 | 1.50 | 1.80 | 12% |  |  |  |  |  |  |
| 6-Hydroxyhexanoyl phytosphingosine [Ex 1b] | −6.20 | −14.36 | −15.88 |  | 5.11 | 1.38 | 7.53 | 2.51 | 12.24 | 4.38 | 3.33 | 4.24 | 4.63 |  |  |  |  |  |  |  |
